Results from ChEMBL document CHEMBL1201862, “PubChem BioAssay data set” (2004).
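Five compound concentrations were applied to cells in 96-well plates for 48 hours; endpoints were derived by simple linear interpolation of the resulting dose-response curve. GI50 marks 50% less growth.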 Calls of active or inactive are those of the source. Cut-off read from the data, not from the text of the source: active = GI50 up to about 1.1 µM and inactive = higher.

Legend:
Assay in all cases: NCI-60 cell line screen, 48 h
SNB-19 = system: SNB-19
SK-MEL-2 = system: SK-MEL-2
HOP-92 = system: HOP-92
EKVX = system: EKVX
OVCAR-8 = system: OVCAR-8
HCC 2998 = system: HCC 2998
KM12 = system: KM12
HCT-116 = system: HCT-116
U-251 = system: U-251
IGROV-1 = system: IGROV-1
TK-10 = system: TK-10
OVCAR-3 = system: OVCAR-3
NCI-H460 = system: NCI-H460
HOP-62 = system: HOP-62
HT-29 = system: HT-29
HL-60 = system: HL-60

Row | SMILES | GI50 (SNB-19) | GI50 (SK-MEL-2) | GI50 (HOP-92) | GI50 (EKVX) | GI50 (OVCAR-8) | GI50 (HCC 2998) | GI50 (KM12) | GI50 (HCT-116) | GI50 (U-251) | GI50 (IGROV-1) | GI50 (TK-10) | GI50 (OVCAR-3) | GI50 (NCI-H460) | GI50 (HOP-62) | GI50 (HT-29) | GI50 (HL-60)
1 | COC(=O)C(=O)C(C(=O)C(=O)Nc1cc(C)ccc1C)c1nc2ccc(C(=O)c3ccccc3)cc2nc1O (centres undefined) | > 100 µM (inactive) | > 100 µM (inactive) | 45.8 µM (inactive) | > 100 µM (inactive) | > 100 µM (inactive) | > 100 µM (inactive) | 71.4 µM (inactive) | > 100 µM (inactive) | > 100 µM (inactive) | > 100 µM (inactive) | > 100 µM (inactive) | – | – | – | – | –
2 | NC(=S)N/N=C1/C(=O)N(c2ccc(Cl)cc2Cl)C(=O)C(=O)C1c1nc2ccccc2s1 (centres undefined) | > 100 µM (inactive) | > 100 µM (inactive) | > 100 µM (inactive) | > 100 µM (inactive) | > 100 µM (inactive) | > 100 µM (inactive) | > 100 µM (inactive) | > 100 µM (inactive) | > 100 µM (inactive) | > 100 µM (inactive) | > 100 µM (inactive) | > 100 µM (inactive) | > 100 µM (inactive) | > 100 µM (inactive) | > 100 µM (inactive) | –
3 | O=C1NC(=O)C2C1c1[nH]c3ccccc3c1C1CCCC12 (centres undefined) | 5.07 µM (inactive) | – | – | 6.76 µM (inactive) | 4.93 µM (inactive) | 6.55 µM (inactive) | 2.17 µM (inactive) | – | 3.1 µM (inactive) | 14.1 µM (inactive) | 8.75 µM (inactive) | 1.83 µM (inactive) | 4.17 µM (inactive) | – | 2.07 µM (inactive) | 0.573 µM (active)
4 | COc1cc(Cl)cc(N(O)C(C)=O)c1OCc1ccccc1 | 80.9 µM (inactive) | – | > 100 µM (inactive) | 30.9 µM (inactive) | 70.8 µM (inactive) | > 100 µM (inactive) | > 100 µM (inactive) | 75.2 µM (inactive) | 80.4 µM (inactive) | > 100 µM (inactive) | 79.4 µM (inactive) | 74.6 µM (inactive) | 48.1 µM (inactive) | 65.6 µM (inactive) | 64.6 µM (inactive) | 40.7 µM (inactive)
5 | CN(C(=O)C12C3C4C1C1C2C3C41I)C(C)(C)C (centres undefined) | > 100 µM (inactive) | > 100 µM (inactive) | – | 64.9 µM (inactive) | > 100 µM (inactive) | > 60 µM (inactive) | > 100 µM (inactive) | 70.1 µM (inactive) | > 91.2 µM (inactive) | > 90.8 µM (inactive) | > 57.4 µM (inactive) | 70.1 µM (inactive) | > 100 µM (inactive) | > 100 µM (inactive) | > 95.1 µM (inactive) | 33 µM (inactive)
6 | CN(C)CC1CCC(CN(C)C)C1=NO (centres undefined) | – | – | > 100 µM (inactive) | > 100 µM (inactive) | > 100 µM (inactive) | > 100 µM (inactive) | – | > 100 µM (inactive) | – | > 100 µM (inactive) | > 100 µM (inactive) | > 100 µM (inactive) | > 10 µM (inactive) | > 100 µM (inactive) | > 100 µM (inactive) | –
7 | NC(=S)N/N=C/C(=C/Nc1ccccc1)[N+](=O)[O-] | > 100 µM (inactive) | > 100 µM (inactive) | > 100 µM (inactive) | > 100 µM (inactive) | > 100 µM (inactive) | – | – | > 100 µM (inactive) | – | > 100 µM (inactive) | > 100 µM (inactive) | > 100 µM (inactive) | – | > 100 µM (inactive) | > 100 µM (inactive) | > 100 µM (inactive)
8 | CC(C)NCCCC(C)Nc1ccnc2ccc3nn(C)nc3c12 (centres undefined) | > 100 µM (inactive) | – | – | > 100 µM (inactive) | 43.6 µM (inactive) | 57.9 µM (inactive) | 50.8 µM (inactive) | 34.8 µM (inactive) | > 100 µM (inactive) | > 100 µM (inactive) | > 100 µM (inactive) | – | 38.6 µM (inactive) | 52.7 µM (inactive) | 37.8 µM (inactive) | 42.4 µM (inactive)
